Measured values taken from ChEMBL document CHEMBL1131431, “Enantiospecific semisynthesis of (+)-almuheptolide-A, a novel natural heptolide inhibitor of the mammalian mitochondrial respiratory chain” (J Med Chem, 1998).
pIC50: −log10 of the molar value.

Biological target: Mitochondrial complex I; NADH oxidoreductase (Bos taurus, UniProt P25708+P52505)
Test: Compound was tested for NADH oxidase activity in bovine heart submitochondrial particles
Format: protein-complex assay

Chain of Mitochondrial complex I; NADH oxidoreductase (P25708 21-464 limits assumed, other chains not shown): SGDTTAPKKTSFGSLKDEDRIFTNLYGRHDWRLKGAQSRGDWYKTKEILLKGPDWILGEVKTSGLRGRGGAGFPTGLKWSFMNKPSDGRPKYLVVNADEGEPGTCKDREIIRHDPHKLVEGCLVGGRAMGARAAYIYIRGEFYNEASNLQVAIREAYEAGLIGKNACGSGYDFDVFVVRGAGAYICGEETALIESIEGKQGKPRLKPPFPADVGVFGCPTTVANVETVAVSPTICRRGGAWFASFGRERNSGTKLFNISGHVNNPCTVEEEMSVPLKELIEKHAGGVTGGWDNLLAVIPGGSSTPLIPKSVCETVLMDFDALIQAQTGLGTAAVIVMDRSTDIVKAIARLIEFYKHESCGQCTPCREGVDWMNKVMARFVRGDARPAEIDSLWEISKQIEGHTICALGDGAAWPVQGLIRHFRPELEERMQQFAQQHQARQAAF

SMILES | pIC50
CCO[C@H]1[C@@H](O)[C@H](O)[C@@H](c2ccccc2)OC(=O)C[C@H]1OCC | 5.36
CCO[C@H]1[C@@H](OC(C)=O)[C@H](OC(C)=O)[C@@H](c2ccccc2)OC(=O)C[C@H]1OCC | 5.41
